Reference: US10851112B2, “Anti-HCMV virus compound” (MEDSHINE DISCOVERY INC., priority 2016, dated 2020)

Experiments:
[1] = tested on: US3-6-EGFP-HCMV-AD169 viruses; test: Fluorescence decay assay against human cytomegalovirus; format: cell-based, human cytomegalovirus (HCMV); details: Human betaherpesvirus 5, AD169, MRC5, 240 h
Procedure: Fluorescence Decay Assay Against Human Cytomegalovirus
The antiviral activity of the compound against human cytomegalovirus (HCMV) was evaluated by determining the half maximal effective concentration (EC50) of the compound. The HCMV used in this assay was inserted with enhanced green fluorescent protein (EGFP) by gene recombination, so the viral replication in cells could be reflected by the expression level of GFP. The inhibitory activity of the compound on HCMV GFP expression was evaluated by determining the fluorescence intensity in the wells of different concentrations of the compound using a high content cell analysis platform Acumen eX3.
Fluorescence Decay Assay Against HCMV
MRC5 cells were inoculated into a black 96-well cell culture plate at a density of 20,000 cells per well. The plate was incubated overnight in a 37° C., 5% CO2 incubator. US3-6-EGFP-HCMV-AD169 viruses were added to the cell culture well at a certain MOI (0.003-0.1) and the plate was incubated for 3 hours in a 37° C., 5% CO2 incubator. After adsorption of viruses, the medium containing viruses was aspirated and 200 μL of cell culture medium containing different concentrations of the compound (4-fold dilution, 6 test concentrations) was added. The final concentration of DMSO in the medium was 1%. Virus control wells (with DMSO added, but no compound was added) and inhibition control wells (with a high concentration of control compound added) were set. The cell plate was incubated for 10 days in a 37° C., 5% CO2 incubator and the liquid was renewed on the 4th day and 7th day. After 10 days of culture, the fluorescence intensity was determined using a high content cell analysis platform Acumen eX3 (TTP LabTech). The original data was used for calculating the antiviral activity of the compound.
The inhibition % was imported into GraphPad Prism software for data processing to give a corresponding dose-response curve for the compound and the EC50 of the test compound was obtained.

[2] = tested on: HCMV viruses (strain: GFP-AD169); test: Human cytomegalovirus (HCMV) transplantation model in mouse; format: in vivo; details: NOD SCID mice, oral 8 mg/kg once a day, 1st to 9th day, plaque detection in gelatin sponge
Procedure: Human Cytomegalovirus (HCMV) Transplantation Model in Mouse
A gelatin sponge containing HCMV was transplanted into mice. After 9 days of continuous administration, the gelatin sponge was collected for plaque detection. The anti-HCMV effect of the compound in the model was evaluated by determining the amount of HCMV in the gelatin sponge.
The animals selected for the experiment were NOD SCID mice (purchased from Shanghai Slac Laboratory Animal Co., Ltd.), 5 weeks, male, 5 animals per group. The day when the mice were transplanted with gelatin sponge was set to be day 0. Human foreskin fibroblasts (HFF, MOI=0.03) were previously infected with HCMV viruses (strain: GFP-AD169). The HMV cells infected with HCMV were added to a 1 cm^2 gelatin sponge for incubation. Animals were anesthetized by intraperitoneal injection of pentobarbital sodium at a dose of 75 mg/kg (10 mL/kg). After the animals entered deep anesthesia, the prepared gelatin sponge was subcutaneously transplanted into the back of the mice. From 1st day to 9th day, the mice were orally administered with the test compound at a dose of 8 mg/kg (10 mL/kg) once a day. At 4 hours after the administration on the 9th day, the gelatin sponge was taken out and digested. The plaque was detected.

[3] = Plasma protein binding rate test, equilibrium dialysis, human plasma; format: in vitro ADME; details: equilibrium dialysis 37° C. 4 hours, read-out: plasma protein binding PPB bound (%) (converted)
Procedure: (§1) Plasma Protein Binding Rate Test of the Compound
(§2) The protein binding rate of the test compound in CD-1 mice, SD rats, and human plasma was evaluated by equilibrium dialysis. The test compound was diluted into the plasma of the above three species respectively to prepare a sample with a final concentration of 2 μM. The sample was added to a 96-well equilibrium dialysis device, and dialyzed using a phosphate buffer solution at 37° C. for 4 hours. Warfarin was used as a control compound in the experiment. The concentration of the test compound and warfarin in the plasma and the buffer was determined by LC-MS/MS.

[4] = Plasma protein binding rate test, equilibrium dialysis, CD-1 mouse plasma; format: in vitro ADME; details: mouse plasma (M), equilibrium dialysis 37° C. 4 hours, read-out: plasma protein binding PPB bound (%) (converted)
Procedure: as §1, §2

[5] = Plasma protein binding rate test, equilibrium dialysis, SD rat plasma; format: in vitro ADME; details: rat plasma (R), equilibrium dialysis 37° C. 4 hours, read-out: plasma protein binding PPB bound (%) (converted)
Procedure: as §1, §2

Compound	EC50 [1]	decrease in HCMV viral load [2]	fraction unbound at 4 h, 2 μM [3]	fraction unbound at 4 h, 2 μM [4]	fraction unbound at 4 h, 2 μM [5]
COc1cccc(N2CCN(C3=Nc4ccsc4[C@H](CC(=O)O)N3c3cc(C(F)(F)F)ccc3OC)C[C@H]2C)c1 (single isomer, unassigned) [WX-136]	0.17 nM	2.33 log PFU/mL	–	–	–
COc1cc(N2CCN(C3=Nc4ccsc4[C@H](CC(=O)O)N3c3cc(C(F)(F)F)ccc3OC)C[C@H]2C)ccn1 (single isomer, unassigned) [WX-141]	0.2 nM	2.38 log PFU/mL	0.06	0.017	0.061
COc1cc(N2CCN(C3=Nc4cscc4[C@H](CC(=O)O)N3c3cc(C(F)(F)F)ccc3OC)C[C@H]2C)ccn1 (single isomer, unassigned) [WX-151]	0.503 nM	2.30 log PFU/mL	0.047	0.011	0.05
